Experimental data published in patent publication EP0145303A1, “Glycerol derivatives” (ONO PHARMACEUTICAL CO., LTD., priority 1983, dated 1985).

Assays:
[1] = molecular target: PAF (10 nM)-induced aggregation (Cavia porcellus, UniProt P21556); test: Inhibitory effect on PAF-induced platelet aggregation (platelet rich plasma, absorbancy method, aggregometer of Born); type: cell-based; settings: male guinea pig platelet rich plasma
Description: Whole blood of male guinea pig was collected with a 3.8% aqueous solution of trisodium citrate in a proportion of 9:1 (v/v) and the mixture was centrifuged (120 x g) for 10 minutes at room temperature to obtain platelet rich plasma. Using obtained plasma, PAF (10 nM)-induced aggregation was determined by the absorbancy method using an aggrego-meter of Born [cf. J. Physiol., 162, 67 (1962)].
The evaluation is conducted using the concentration of compounds of the present invention required to produce a 50% inhibition of each effect, i.e. IC50.

mice = test: Acute toxicity by intravenous administration; type: in vivo; settings: five mice, intravenous to tail vein, dose of 100 mg/Kg
Description: On the other hand, it was confirmed that the acute toxicity of all extent of the compounds of the present invention was more than 100 mg/Kg by intravenous administration. Therefore, glycerol derivatives of the present invention may be considered to be sufficiently safe and suitable for medical use. For example, the mortality (daed/used) in glycerol derivatives of the present invention, i.e. compounds prepared in Example 4 was 0/5, when glycerol derivatives was intravenous administered to tail vein in five mice at the dose of 100 mg/Kg.

PAF (10 nM)-induced aggregation, sequence (P21556 whole entry): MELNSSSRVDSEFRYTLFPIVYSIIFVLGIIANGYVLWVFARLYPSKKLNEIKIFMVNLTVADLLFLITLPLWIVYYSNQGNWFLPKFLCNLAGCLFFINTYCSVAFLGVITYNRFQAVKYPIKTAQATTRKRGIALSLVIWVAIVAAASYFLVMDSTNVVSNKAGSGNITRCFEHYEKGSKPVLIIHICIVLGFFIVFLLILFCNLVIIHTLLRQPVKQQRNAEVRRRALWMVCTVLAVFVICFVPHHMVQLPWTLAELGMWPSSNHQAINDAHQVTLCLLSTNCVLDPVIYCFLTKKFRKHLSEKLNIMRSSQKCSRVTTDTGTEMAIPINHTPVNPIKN

Row | SMILES | IC50 [1] | mortality (daed/used) (mice)
1 | CCCCCCCCCCCCCCCCOCC(COCCCc1ccc([N+](C)(C)C)cc1)NC(=O)OCC(C)C (racemic) [Example 9] | 3.7 µM | –
2 | CCCCCCCCCCCCCCCCOCC(COc1ccc(CCCC[N+](C)(C)C)cc1)NC(=O)NC (centres unmarked) [5(a)] | 4.7 µM | –
3 | CCCCCCCCCCCCCCCCOCC(COc1ccc(CCCC[N+](C)(C)C)cc1)OC(C)=O (centres unmarked) [Example 2] | 5 µM | –
4 | CCCCCCCCCCCCCCCCOCC(COc1ccc(CCCC[N+](C)(C)C)cc1)NC(=O)OCC(C)C (centres unmarked) [Example 4] | – | 0/5
5 | CCCCCCCCCCCCCCCCOCC(COc1ccc(CCCC[N+](C)(C)C)cc1)NC(C)=O (centres unmarked) [Example 5] | 6.7 µM | –
